Source: the CheMixHub ionic liquid set
Where “and” joins values, the source holds several entries; their conditions need not be identical. Identical values can stand only once.

Test: xn = mol fraction of the nth substance listed

CCCCCC[n+]1ccc(C)cc1.[Br-] + CO/N=C(\C(=O)N[C@@H]1C(=O)N2C(C(=O)[O-])=C(CSc3nc(=O)c(=O)[n-]n3C)CS[C@H]12)c1csc(N)n1.[Na+].[Na+] + O
viscosity [mPa·s], 100 kPa
Settings	288.15 K	293.15 K	298.15 K	303.15 K	308.15 K
x2 = 0, x1 = 0.0007045	1.172	1.028	0.913	0.817	0.738
x2 = 0, x1 = 0.001062	1.183	1.039	0.924	0.824	0.746
x2 = 0, x1 = 0.001422	1.195	1.05	0.934	0.834	0.753
x2 = 0.00034, x1 = 0.0007042	1.221	1.065	0.947	0.847	0.764
x2 = 0.0008651, x1 = 0.0007039	1.316	1.152	1.019	0.911	0.818
x2 = 0.0008655, x1 = 0.001061	1.322	1.159	1.029	0.917	0.826
x2 = 0.0008696, x1 = 0.001421	1.338	1.172	1.038	0.923	0.831
x2 = 0.001399, x1 = 0.0007035	1.412	1.233	1.092	0.974	0.875
x2 = 0.001401, x1 = 0.00142	1.432	1.255	1.116	0.991	0.888
x2 = 0.001409, x1 = 0.00106	1.418	1.244	1.1	0.98	0.881
x2 = 0.001955, x1 = 0.001419	1.545	1.353	1.2	1.062	0.951
x2 = 0.001966, x1 = 0.0007031	1.521	1.329	1.178	1.047	0.938
x2 = 0.00197, x1 = 0.00106	1.534	1.34	1.184	1.054	0.946
x2 = 0.00252, x1 = 0.0007027	1.641	1.432	1.264	1.125	1.01
x2 = 0.002559, x1 = 0.001419	1.685	1.47	1.302	1.143	1.03
x2 = 0.003119, x1 = 0.0007023	1.784	1.555	1.369	1.216	1.088
x2 = 0.003144, x1 = 0.001058	1.807	1.572	1.398	1.231	1.098
x2 = 0.003161, x1 = 0.001418	1.832	1.592	1.412	1.242	1.112
x2 = 0.003971, x1 = 0.0007017	2.011	1.751	1.539	1.363	1.216
x2 = 0.003978, x1 = 0.001417	2.065	1.788	1.585	1.387	1.243
x2 = 0.004835, x1 = 0.0007011	2.288	1.987	1.737	1.534	1.365
x2 = 0.004866, x1 = 0.001415	2.36	2.033	1.798	1.567	1.394
x2 = 0.00487, x1 = 0.001057	2.329	2.011	1.772	1.556	1.379
x2 = 0.005535, x1 = 0.0007006	2.55	2.197	1.919	1.69	1.499
x2 = 0.005568, x1 = 0.001056	2.58	2.228	1.956	1.716	1.513
x2 = 0.00558, x1 = 0.001414	2.61	2.251	1.984	1.726	1.534

CCCCCCCC[N+](C)(CCCCCCCC)CCCCCCCC.[Cl-] + COC(=O)OC
101 kPa
Settings	electrical conductivity	viscosity [mPa·s]
298.15 K, x1 = 0.002	0.00012 S/m	–
298.15 K, x1 = 0.006	0.000267 S/m	–
298.15 K, x1 = 0.011	0.000601 S/m	–
298.15 K, x1 = 0.015	0.000944 S/m	–
298.15 K, x2 = 0	0.0026 S/m	2391
298.15 K, x2 = 0.67	0.015 S/m	58.07
298.15 K, x2 = 0.88	0.026 S/m	5.19
298.15 K, x2 = 0.98	0.00126 S/m	–
303.15 K, x1 = 0.002	0.000143 S/m	–
303.15 K, x1 = 0.006	0.000346 S/m	–
303.15 K, x1 = 0.011	0.00075 S/m	–
303.15 K, x1 = 0.015	0.00122 S/m	–
303.15 K, x2 = 0.55	0.0126 S/m	123.5
303.15 K, x2 = 0.98	0.00161 S/m	–
308.15 K, x1 = 0.002	0.000199 S/m	–
308.15 K, x1 = 0.006	0.00043 S/m	–
308.15 K, x2 = 0.76	0.0317 S/m	15.98
308.15 K, x2 = 0.95	0.0116 S/m	1.21
308.15 K, x2 = 0.98	0.0017 S/m and 0.00175 S/m	0.71
313.15 K, x1 = 0.006	0.0005 S/m	–
313.15 K, x1 = 0.011	0.00105 S/m	–
313.15 K, x2 = 0.55	0.0201 S/m	78.5
313.15 K, x2 = 0.92	0.0292 S/m	1.9
313.15 K, x2 = 0.98	0.00188 S/m and 0.0019 S/m	0.67
318.15 K, x1 = 0.002	0.000399 S/m	–
318.15 K, x1 = 0.006	0.00062 S/m	–
318.15 K, x1 = 0.011	0.00115 S/m	–
318.15 K, x2 = 0.98	0.00197 S/m	–

CCCCCCCCn1cc[n+](C)c1.F[B-](F)(F)F + COC(C)=O
298.15 K, 101 kPa
Settings	viscosity [mPa·s]
x2 = 0.199	100
x2 = 0.5512	13.82
x2 = 0.801	2.29
x2 = 0.9515	0.63

CCCCCCCCCCCCCC[P+](CCCCCC)(CCCCCC)CCCCCC.O=S(=O)([N-]S(=O)(=O)C(F)(F)F)C(F)(F)F + COCCOCCOCCOCCOC
viscosity [mPa·s], 100 kPa
Settings	278.15 K	283.15 K	288.15 K	293.15 K	298.15 K	303.15 K	313.15 K	323.15 K
x2 = 0.191	589	414	299	221	168	130	83	60
x2 = 0.366	281	207	157	121	96	77	52	–
x2 = 0.559	111	85	67	54	–	–	–	–
x2 = 0.664	64	51	–	–	–	–	–	–

O=C1CCCO1 + COCCn1cc[n+](C)c1.N#C[S-]
Settings	viscosity [mPa·s]
313.15 K, 101 kPa, x2 = 0	1.38

CC(C)O + CS(=O)(=O)[O-].C[N+](C)(CCO)CCO
101 kPa, x2 = 0
Settings	viscosity [mPa·s]
298.15 K	2.08
303.15 K	1.79
308.15 K	1.546
313.15 K	1.343
318.15 K	1.189
323.15 K	1.056

CCCC[n+]1ccn(C)c1.O=S(=O)([O-])C(F)(F)F + CS(C)=O
viscosity [mPa·s], 100 kPa
Settings	x1 = 0.1006	x1 = 0.2001	x1 = 0.3054	x1 = 0.4035	x1 = 0.502	x1 = 0.6085	x1 = 0.7001	x1 = 0.8088	x1 = 0.9004	x1 = 1
298.15 K	4	6.59	10.1	14.3	21.8	33	44	59.8	72.8	82.4
303.15 K	3.57	5.71	8.68	12.4	18.4	27.2	36	48.1	58.3	66.7
308.15 K	3.18	–	7.55	10.5	15.5	22.7	29.7	39.6	47.4	52.9
313.15 K	2.88	4.46	6.61	9.22	13.3	19.2	25	32.8	39	43.7
318.15 K	2.61	3.98	5.83	8.08	11.5	16.4	21.2	27.5	32.6	36.3
323.15 K	2.38	3.59	5.2	7.15	10.1	14.2	18.1	23.4	27.5	30.6

CCOP(=O)([O-])OCC.CC[n+]1ccn(C)c1 + CS(C)=O
298.1 K, 100 kPa
Settings	electrical conductivity
x1 = 0.025	0.31 S/m and 0.4 S/m
x1 = 0.407	0.4 S/m
x1 = 0.718	0.16 S/m
x1 = 1	0.09 S/m
